Assay results reported in US20080293571A1, “Insecticide organic fertilizer composition, process and method” (priority 2007, published 2008).

Test: Biodegradation of rotenone after the composition is poured onto soil
Conditions: rotenone in the composition

Structure (SMILES): C=C(C)[C@H]1Cc2c(ccc3c2O[C@@H]2COc4cc(OC)c(OC)cc4[C@@H]2C3=O)O1 [rotenone]
- Time until substantially biodegraded after pouring or drenching the nest: approximately 3 days
- Time until biodegrading after pouring the solution onto the soil (stable in liquid form in the container): 2 to 5 days
